Read-outs that look alike come from different tables or passages of the source.
Experiments:
PKC-α = PKC-α (Homo sapiens, UniProt P17252); assay: PKC inhibition assay; assay type: biochemical
Experimental: (§1) GST-fused kinase domains of Kdr, Flt-1, Flk, Tek, c-Met, and c-Kit were expressed in baculovirus and purified over glutathione-Sepharose. Kinase inhibition was measured by detecting the decrease in phosphorylation of poly(Glu,Tyr 4:1) essentially as previously described for EGF-R. Each kinase was incubated under optimized buffer conditions in 20 mM Tris-HCl, pH 7.5, 1–3 mM MnCl2, 3–10 mM MgCl2, 10 μM Na3VO4, 1 mM DTT, 0.2 μCi/[γ-^33P]ATP, 1–8 μM ATP, 3–8 μg/ml poly(Glu,Tyr 4:1), 1% DMSO in a total volume of 30 μl in the presence or absence of PKI166 for 10 min at ambient temperature. Reactions were terminated by adding 10 μl of 250 mM EDTA, and the reaction mixture was transferred onto an Immobilon-PVDG membrane (Millipore, Bedford, Mass.). Following a washing (0.5% H3PO4), a soaking in EtOH, and drying, filters were counted in a liquid scintillation counter. IC50 values for PKI166 were calculated by linear regression analysis of the percentage inhibition. Inhibition of Cdc2/cyclin B protein kinase (Arion et al. 1988; Partanen et al. 1991) and PKC (McGlynn et al. 1992b) was assayed as previously described.

c-Kit = target: T1, c-Kit (Homo sapiens, UniProt P10721); assay: GST-fused kinase domain assay, c-Kit; assay type: biochemical
T1 construct: GST-fused kinase domains of Kdr, Flt-1, Flk, Tek, c-Met, and c-Kit were expressed in baculovirus; GST; made in house
Experimental: as §1

EGF-R = target: T2, EGF-R (Homo sapiens, UniProt P00533); assay: Western blot analysis of EGF-R autophosphorylation in L3.6pl cells; assay type: cell-based; settings: 60 min pretreatment, 0.01–0.5 μM, then EGF
T2 construct: endogenous in cells; host or cells: L3.6pl human pancreatic cancer cells
Experimental: Western Blot Analysis of EGF-R Autophosphorylation following Treatment with PKI166. […] without 40 ng/ml rhEGF for 10 min, washed, and scraped into PBS containing 5 mM EDTA and 1 mM Na Orthovanadate, and centrifuged, and the pellet resuspended in lysis buffer (20 mM Tris-HCl, pH 8.0, 137 mM NaCl, 10% glycerol, 2 mM EDTA, 1 mM phenylmethylsulfonyl fluoride, 20 μM leupeptin, and 0.15 U/ml aprotinin) sonicated, and centrifuged to recover […] protein. Immunoprecipitation was performed using Mab anti-EGF-R (clone EGF-RI) as described previously (Perrotte et al. 1999; Parker et al. 1998). Immunoprecipitates were analyzed on 7.5% NaDodSO4-PAGE and transferred onto 0.45-μm nitrocellulose membranes. The filters were blocked with 3% bovine serum albumin in TDS (20 mM Tris-HCl, pH 7.5, 150 mM NaCl), probed with either polyclonal sheep anti-human EGF-R (1:1000) or monoclonal anti-phosphotyrosine (Mab 4G10) (1:2000) in TTBS (0.1% Tween 20 in TBS), and incubated with horseradish peroxidase-conjugated donkey anti-sheep IgG (1:2000) (Sigma Immunochemicals, St. Louis, Mo.) or sheep anti-mouse IgG (1:2000), respectively, in TTBS. Protein bands were visualized by ECL detection system. For an additional experiment, serum-starved L3.6pl cells were treated with gemcitabine (10 nM) with or without PKI166 (0.05, 0.5 μM) for 1 h, and then incubated with or without rhEGF (40 ng/ml) for 10 min. […]

KDR = target: T3, KDR (Homo sapiens, UniProt P35968); assay: GST-fused kinase domain assay, KDR; assay type: biochemical
T3 construct: GST-fused kinase domains of Kdr, Flt-1, Flk, Tek, c-Met, and c-Kit were expressed in baculovirus; GST; made in house
Experimental: as §1

IL-8 = assay: In vitro expression of IL-8 by L3.6pl cells (ELISA); assay type: cell-based, human; settings: 72 h, 1 μM PKI166 or 10 nM gemcitabine, control 1440 pg/ml
Experimental: (§2) In vitro Expression of VEGF and IL-8. L3.6pl cells (2000 cells/38 mm^2 well) were plated into 96-well plates in 200 μl supplemented DMEM containing 5% FBS for 24 h, and then treated with 0.05, 0.5, or 1 μM PKI166. Supplemented DMEM (5% FBS) and human IgG (10 μg/ml) served as controls. Seventy-two hours later, the culture supernatants were collected, and the level of VEGF and IL-8 proteins (corrected for cell number) were determined by Quantikine ELISA kits.

c-Met = target: T4, c-Met (Homo sapiens, UniProt P08581); assay: GST-fused kinase domain assay, c-Met; assay type: biochemical
T4 construct: GST-fused kinase domains of Kdr, Flt-1, Flk, Tek, c-Met, and c-Kit were expressed in baculovirus; GST; made in house
Experimental: as §1

Flk = target: T5, Flk (Mus musculus, UniProt P35918); assay: GST-fused kinase domain assay, Flk; assay type: biochemical
T5 construct: GST-fused kinase domains of Kdr, Flt-1, Flk, Tek, c-Met, and c-Kit were expressed in baculovirus; GST; made in house
Experimental: as §1

VEGF = assay: In vitro expression of VEGF by L3.6pl cells (ELISA); assay type: cell-based, human; settings: 72 h, 1 μM PKI166 or 10 nM gemcitabine, control 1400 pg/ml
Experimental: as §2

[1] = mice, cited from earlier work
c-Src = c-Src (Homo sapiens, UniProt P12931); assay: In vitro kinase filter binding assay, c-Src; assay type: biochemical
Experimental: Preparation of Enzymes and Kinase Assays. In vitro enzyme assays using EGF-R (McGlynn et al. 1992a), Abl (Geissler et al. 1992), and c-Src (Geissler et al. 1990) protein tyrosine kinases were performed in 96-well plates as a filter binding assay. Briefly, EGF-R intracellular kinase domain (EGF-R-ICD) was assayed in 20 mM Tris-HCl, pH 7.5, 10 mM MnCl2, 10 μM Na3VO4, 1 mM DTT, 0.1 μCi/assay [γ-^33P]ATP, 0.4 μM ATP, 2 μ/ml poly(Glu,Tyr 4:1) (Sigma P275), 1% DMSO, and 30 ng EGF-R-ICD in a total volume of 30 μl. […] Src kinase (60 μg/ml) was preactivated with 50 μM ATP for 10 min at room temperature, and kinase inhibition was measured in 20 mM Tris-HCl, pH 7.5, 10 mM MgCl2, 10 μM Na3VO4, 1 mM DTT, 0.1 μCi/assay (=30 μl ) [γ-^33P]ATP, 20 μM ATP, 25 μg/ml poly(Glu,Tyr 4:1), 1% DMSO, and 10 ng c-Src enzyme.
GST-fused kinase domains of Kdr, Flt-1, Flk, Tek, c-Met, and c-Kit were expressed in baculovirus and purified over glutathione-Sepharose. Kinase inhibition was measured by detecting the decrease in phosphorylation of poly(Glu,Tyr 4:1) essentially as previously described for EGF-R. Each kinase was incubated under optimized buffer conditions in 20 mM Tris-HCl, pH 7.5, 1–3 mM MnCl2, 3–10 mM MgCl2, 10 μM Na3VO4, 1 mM DTT, 0.2 μCi/[γ-^33P]ATP, 1–8 μM ATP, 3–8 μg/ml poly(Glu,Tyr 4:1), 1% DMSO in a total volume of 30 μl in the presence or absence of PKI166 for 10 min at ambient temperature. […]

Chain of c-Src (P12931 whole entry, species assumed, the tested form may be a part): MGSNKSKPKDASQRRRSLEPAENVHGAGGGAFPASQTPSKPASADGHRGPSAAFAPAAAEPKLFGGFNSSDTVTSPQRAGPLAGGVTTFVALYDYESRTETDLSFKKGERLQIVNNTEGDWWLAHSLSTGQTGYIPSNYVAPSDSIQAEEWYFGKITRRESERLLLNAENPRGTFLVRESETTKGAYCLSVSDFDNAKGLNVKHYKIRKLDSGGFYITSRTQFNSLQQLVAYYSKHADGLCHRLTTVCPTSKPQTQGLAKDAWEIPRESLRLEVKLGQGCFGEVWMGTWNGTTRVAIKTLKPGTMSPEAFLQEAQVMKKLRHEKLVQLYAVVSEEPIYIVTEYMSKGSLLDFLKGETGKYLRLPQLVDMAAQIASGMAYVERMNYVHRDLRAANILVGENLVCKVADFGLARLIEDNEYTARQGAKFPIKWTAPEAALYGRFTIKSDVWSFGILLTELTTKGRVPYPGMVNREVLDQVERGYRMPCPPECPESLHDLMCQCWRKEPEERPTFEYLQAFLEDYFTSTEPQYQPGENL
T2 sequence (P00533 25-1210): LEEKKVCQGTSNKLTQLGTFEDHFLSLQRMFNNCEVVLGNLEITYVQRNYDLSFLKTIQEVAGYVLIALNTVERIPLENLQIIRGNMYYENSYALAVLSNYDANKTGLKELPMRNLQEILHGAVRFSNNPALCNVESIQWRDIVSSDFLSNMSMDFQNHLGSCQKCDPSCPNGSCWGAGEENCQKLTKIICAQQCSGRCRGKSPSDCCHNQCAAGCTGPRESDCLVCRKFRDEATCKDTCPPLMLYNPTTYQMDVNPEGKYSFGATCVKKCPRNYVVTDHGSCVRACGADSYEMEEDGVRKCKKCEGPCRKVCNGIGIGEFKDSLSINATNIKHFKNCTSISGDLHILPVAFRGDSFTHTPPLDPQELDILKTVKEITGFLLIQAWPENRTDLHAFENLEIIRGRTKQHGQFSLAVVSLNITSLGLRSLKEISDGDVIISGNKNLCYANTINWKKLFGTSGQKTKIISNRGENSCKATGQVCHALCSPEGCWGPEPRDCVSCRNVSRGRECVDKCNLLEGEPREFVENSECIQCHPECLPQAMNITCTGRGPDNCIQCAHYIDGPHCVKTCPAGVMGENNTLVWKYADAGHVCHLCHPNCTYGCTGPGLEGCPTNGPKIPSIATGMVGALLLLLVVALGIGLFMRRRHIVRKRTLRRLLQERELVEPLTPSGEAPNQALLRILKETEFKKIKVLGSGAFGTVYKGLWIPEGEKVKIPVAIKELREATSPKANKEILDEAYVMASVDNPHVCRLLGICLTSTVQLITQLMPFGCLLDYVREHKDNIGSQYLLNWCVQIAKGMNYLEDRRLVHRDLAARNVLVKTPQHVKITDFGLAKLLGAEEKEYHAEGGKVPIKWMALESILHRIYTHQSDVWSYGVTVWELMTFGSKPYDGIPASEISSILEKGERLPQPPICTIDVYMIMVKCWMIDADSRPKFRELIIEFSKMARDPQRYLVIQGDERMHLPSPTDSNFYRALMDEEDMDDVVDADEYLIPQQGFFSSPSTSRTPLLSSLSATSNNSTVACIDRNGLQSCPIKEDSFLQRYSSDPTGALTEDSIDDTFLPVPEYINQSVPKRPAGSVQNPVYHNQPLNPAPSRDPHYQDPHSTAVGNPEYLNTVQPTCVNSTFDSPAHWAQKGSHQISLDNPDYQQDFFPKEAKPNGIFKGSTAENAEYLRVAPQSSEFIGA
T3 sequence (P35968 834-1162 limits assumed): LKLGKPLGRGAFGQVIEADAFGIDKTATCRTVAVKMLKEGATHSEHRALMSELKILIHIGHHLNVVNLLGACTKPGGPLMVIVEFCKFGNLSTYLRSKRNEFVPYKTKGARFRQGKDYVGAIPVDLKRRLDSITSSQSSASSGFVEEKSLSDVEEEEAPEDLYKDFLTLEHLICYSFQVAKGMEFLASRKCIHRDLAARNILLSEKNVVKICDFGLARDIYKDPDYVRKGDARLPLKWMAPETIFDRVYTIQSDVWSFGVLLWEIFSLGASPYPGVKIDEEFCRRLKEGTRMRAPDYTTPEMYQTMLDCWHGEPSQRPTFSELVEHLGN
T4 sequence (P08581 1078-1345 limits assumed): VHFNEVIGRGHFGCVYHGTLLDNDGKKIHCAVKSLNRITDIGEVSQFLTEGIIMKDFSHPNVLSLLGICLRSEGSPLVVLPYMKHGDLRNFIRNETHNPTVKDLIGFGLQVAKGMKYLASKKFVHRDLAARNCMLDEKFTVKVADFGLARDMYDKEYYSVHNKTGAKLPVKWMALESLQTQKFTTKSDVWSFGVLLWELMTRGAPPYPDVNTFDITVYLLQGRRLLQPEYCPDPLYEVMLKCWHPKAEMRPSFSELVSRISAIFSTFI
T5 sequence (P35918 832-1160 limits assumed): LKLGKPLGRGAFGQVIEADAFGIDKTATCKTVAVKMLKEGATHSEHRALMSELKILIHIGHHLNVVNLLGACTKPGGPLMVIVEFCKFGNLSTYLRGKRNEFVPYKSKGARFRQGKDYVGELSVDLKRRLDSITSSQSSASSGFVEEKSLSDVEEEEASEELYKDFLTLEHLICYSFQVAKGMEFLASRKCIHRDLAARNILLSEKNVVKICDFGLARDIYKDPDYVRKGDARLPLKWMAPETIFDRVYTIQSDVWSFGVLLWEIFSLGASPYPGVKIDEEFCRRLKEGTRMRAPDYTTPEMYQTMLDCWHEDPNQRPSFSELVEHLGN
T1 sequence (P10721 589-937 limits assumed): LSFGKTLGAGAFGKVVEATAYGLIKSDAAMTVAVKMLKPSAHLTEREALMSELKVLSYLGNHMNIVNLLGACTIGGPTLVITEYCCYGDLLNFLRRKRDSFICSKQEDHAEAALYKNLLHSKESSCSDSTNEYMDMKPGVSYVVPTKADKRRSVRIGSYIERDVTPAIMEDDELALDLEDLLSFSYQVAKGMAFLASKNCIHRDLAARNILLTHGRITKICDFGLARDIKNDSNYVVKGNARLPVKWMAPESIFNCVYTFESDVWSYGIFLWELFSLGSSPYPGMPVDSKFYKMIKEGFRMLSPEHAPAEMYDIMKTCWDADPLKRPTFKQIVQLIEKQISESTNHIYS

What does the source list for C[C@@H](Nc1ncnc2[nH]c(-c3ccc(O)cc3)cc12)c1ccccc1 [PKI166, 4-(R)-phenethylamino-6-(hydroxyl) phenyl-7H-pyrrolo[2.3-d]-pyrimidine]?
IC50 (PKC-α): > 100000 nM; IC50 (c-Kit): 2210 nM; Inhibition of EGF-stimulated EGF-R autophosphorylation (EGF-R): inhibited the autophosphorylation in a dose-dependent manner; IC50 (KDR): 327 nM; IL-8 in culture supernatant (IL-8): 640 pg/mL; IC50 (c-Met): > 1000 nM; IC50 (Flk): > 1000 nM; VEGF in culture supernatant (VEGF): 180 pg/mL; Sustained levels of unchanged compound in plasma, time after oral administration ([1]; plasma, oral): up to 8 h; Cmax ([1]; single oral administration of 100 mg/kg, plasma, read-out: C max in plasma): 32.8 µM; Cmax ([1]; single oral administration of 100 mg/kg, subcutaneous A431 tumors, read-out: C max in subcutaneous A431 tumors): 53 µM; t max ([1]; single oral administration of 100 mg/kg): 1 h; IC50 (c-Src): 103 nM; IC50 (c-Src; text): 130 nM

— patent US7344829B2, “Methods for detecting the efficacy of anticancer treatments” (Board of Regents, the University of Texas System, priority 2000, dated 2008)
